This is an account of results in patent US20240228488A1 (TAKEDA PHARMACEUTICAL COMPANY LIMITED, priority 2021, published 2024).

Sequence of human activated kallikrein enzyme (P03952 391-638 limits assumed): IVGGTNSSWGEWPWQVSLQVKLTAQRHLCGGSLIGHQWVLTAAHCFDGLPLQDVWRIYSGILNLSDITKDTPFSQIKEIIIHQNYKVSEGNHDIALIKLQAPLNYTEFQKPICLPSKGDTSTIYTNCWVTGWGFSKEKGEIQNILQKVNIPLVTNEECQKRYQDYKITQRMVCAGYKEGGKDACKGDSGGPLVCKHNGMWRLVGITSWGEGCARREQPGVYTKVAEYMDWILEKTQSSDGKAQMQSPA
Sequence of human activated kallikrein enzyme (P03952 20-390 partner limits assumed): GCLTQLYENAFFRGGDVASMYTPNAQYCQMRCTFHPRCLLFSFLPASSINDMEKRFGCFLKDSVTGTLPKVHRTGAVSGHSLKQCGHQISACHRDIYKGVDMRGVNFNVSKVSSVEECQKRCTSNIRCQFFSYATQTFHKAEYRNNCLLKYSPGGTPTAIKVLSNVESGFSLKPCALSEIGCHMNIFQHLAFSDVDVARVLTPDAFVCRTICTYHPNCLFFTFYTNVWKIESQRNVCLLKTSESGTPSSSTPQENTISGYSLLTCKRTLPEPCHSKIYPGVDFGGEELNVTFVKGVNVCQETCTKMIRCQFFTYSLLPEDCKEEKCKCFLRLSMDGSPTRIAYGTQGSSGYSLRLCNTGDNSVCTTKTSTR

The assay concerns the target human activated kallikrein enzyme (Homo sapiens, UniProt P03952). The assay is described as follows: Plasma kallikrein inhibition, fluorogenic PFR-AMC substrate, 500 pM activated kallikrein format. It counts as biochemical. To be noted: 500 pM activated kallikrein, 300 uM PFR-AMC, 30 min preincubation, 10 min reaction; read-out: Primary Dose Response Assay: Average EC50. Summed up:
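High-enzyme format of the fluorogenic peptide assay, with EC50 taken from AMC signal: 500 pM activated kallikrein, 300 uM Pro-Phe-Arg-AMC, 30 min compound preincubation and 10 min reaction, all at room temperature, pH 7.5.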
As a reminder, the EC50 is the midpoint of the concentration-response curve. For the compound `O=C(Nc1cc(NCc2cn3cc(C4CC4)ccc3n2)ncn1)[C@H]1C[C@@H]1c1cc(Cl)cs1` (racemic) [Example I-186, rac-(1S*,2S*)-2-(4-chlorothiophen-2-yl)-N-(6-(((6-cyclopropylimidazo[1,2-a]pyridin-2-yl)methyl)amino)pyrimidin-4-yl)cyclopropane-1-carboxamide], the concentration giving a half-maximal response (EC50) lay within 10 to 100 nM.

Turning to `Cc1ccnc([C@H]2C[C@@H]2C(=O)Nc2cc(O)cc(OCc3cn4cc(C5CC5)cc(N5CC(=O)N(C)C5=O)c4n3)n2)n1` [Example 661, (1S,2S)—N-(6-((6-cyclopropyl-8-(3-methyl-2,4-dioxoimidazolidin-1-yl)imidazo[1,2-a]pyridin-2-yl)methoxy)-4-hydroxypyridin-2-yl)-2-(4-methylpyrimidin-2-yl)cyclopropane-1-carboxamide], the concentration for a half-maximal effect (EC50) fell in the range of 1 to 10 nM.

On to `O=C(Nc1nccnc1OCc1cn2cc(C3CC3)ccc2n1)[C@H]1C[C@@H]1c1cccc(Cl)c1` [Example 570, (1S,2S)-2-(3-chlorophenyl)-N-(3-((6-cyclopropylimidazo[1,2-a]pyridin-2-yl)methoxy)pyrazin-2-yl)cyclopropane-1-carboxamide], for which the EC50 was 10 to 100 nM.

As for `O=C(Nc1cc(NCc2cn3cc(Cl)ccc3n2)ncn1)[C@H]1C[C@@H]1c1cccc(Cl)c1` [Example I-203, (1S,2S)-N-(6-(((6-chloroimidazo[1,2-a]pyridin-2-yl)methyl)amino)pyrimidin-4-yl)-2-(3-chlorophenyl)cyclopropane-1-carboxamide], the EC50 was in the range of 10 to 100 nM.

Take `O=C(Nc1cc(NCc2cn3cc(C4CC4)ccc3n2)ncn1)[C@H]1C[C@@H]1c1cccc(C2CC2)c1` (racemic) [Example 351, rac-(1S*,2S*)—N-(6-(((6-cyclopropylimidazo[1,2-a]pyridin-2-yl)methyl)amino)pyrimidin-4-yl)-2-(3-cyclopropylphenyl)cyclopropane-1-carboxamide]: the EC50 is over 6000 nM.

Turning to `Cc1ccnc([C@H]2C[C@@H]2C(=O)Nc2cc(NCc3cn4cc(Cl)cc(N5CC(=O)N(C)C5=O)c4n3)ncn2)n1` [Example 380, (1S,2S)-N-(6-(((6-chloro-8-(3-methyl-2,4-dioxoimidazolidin-1-yl)imidazo[1,2-a]pyridin-2-yl)methyl)amino)pyrimidin-4-yl)-2-(4-methylpyrimidin-2-yl)cyclopropane-1-carboxamide], the EC50 was under 1 nM.

As to `N#Cc1ccc(Cl)cc1[C@@H]1C[C@H]1C(=O)Nc1cc(NCc2cn3cc(C4CC4)ccc3n2)ccn1` (single isomer, unassigned) [Example 83], the 50% effective concentration (EC50) fell in the range of 10 to 100 nM.

Consider `O=C(Nc1cc(NCc2cn3cc(C4CC4)ccc3n2)ccn1)[C@H]1C[C@@H]1c1cncc(Cl)c1` (racemic) [Example I-221, rac-(1S*,2S*)-2-(5-chloropyridin-3-yl)-N-(4-(((6-cyclopropylimidazo[1,2-a]pyridin-2-yl)methyl)amino)pyridin-2-yl)cyclopropane-1-carboxamide], for which the EC50 was 10 to 100 nM.

For the compound `CC1(C)CC(=O)N(c2cc(C3CC3)cn3cc(CNc4cc(NC(=O)[C@H]5C[C@@H]5c5cccc(Cl)c5)ncn4)nc23)C1` (racemic) [Example 66, rac-(1S*,2S*)-2-(3-chlorophenyl)-N-(6-(((6-cyclopropyl-8-(4,4-dimethyl-2-oxopyrrolidin-1-yl)imidazo[1,2-a]pyridin-2-yl)methyl)amino)pyrimidin-4-yl)cyclopropane-1-carboxamide], the half-maximal effective concentration (EC50) fell in the range of 1 to 10 nM.

On to `CN1C(=O)CN(c2cc(C3CC3)cn3cc(CNc4cc(NC(=O)[C@@H]5C[C@H]5c5cc(Cl)ccn5)ncn4)nc23)C1=O` (single isomer, unassigned) [Example I-263], for which the EC50 is 10 to 100 nM.

For the compound `Cc1ccnc([C@H]2C[C@@H]2C(=O)Nc2cc(NC(C)c3cn4c(N5CC(=O)N(C)C5=O)cc(C5CC5)cc4n3)nc(C)n2)n1` (stereo partly drawn) [Example 362, (1S,2S)-N-(6-((1-(7-cyclopropyl-5-(3-methyl-2,4-dioxoimidazolidin-1-yl)imidazo[1,2-a]pyridin-2-yl)ethyl)amino)-2-methylpyrimidin-4-yl)-2-(4-methylpyrimidin-2-yl)cyclopropane-1-carboxamide], the EC50 lay in the range of 100 to 1000 nM.

For the compound `N#Cc1ccc(Cl)cc1[C@H]1C[C@@H]1C(=O)Nc1cc(NCc2cn3cc(C4CC4)ccc3n2)ccn1` (single isomer, unassigned) [Example 84], the half-maximal effective concentration (EC50) is under 1 nM.

On to `O=C(O)c1cc(C2CC2)cn2cc(CNc3cc(NC(=O)[C@H]4C[C@@H]4c4cccc(Cl)c4)ncn3)nc12` [Example 298, 2-(((6-((1S,2S)-2-(3-chlorophenyl)cyclopropane-1-carboxamido)pyrimidin-4-yl)amino)methyl)-6-cyclopropylimidazo[1,2-a]pyridine-8-carboxylic acid], for which the EC50 lay within 1 to 10 nM.

Regarding `O=C(Nc1cc(NCc2cn3cc(C4CC4)ccc3n2)ncn1)[C@H]1C[C@@H]1c1cc(Cl)ccc1-n1cnnn1` (racemic) [Example 316, rac-(1S*,2S*)-2-(5-chloro-2-(1H-tetrazol-1-yl)phenyl)-N-(6-(((6-cyclopropylimidazo[1,2-a]pyridin-2-yl)methyl)amino)pyrimidin-4-yl)cyclopropane-1-carboxamide], the EC50 lay within 1 to 10 nM.

Consider `CC(C)(C)OC(=O)Nc1cc(Cl)cc([C@H]2C[C@@H]2C(=O)Nc2cc(NCc3cn4cc(C5CC5)ccc4n3)ncn2)c1` (racemic) [Example I-189, rac-tert-butyl (3-chloro-5-((1S*,2S*)-2-((6-(((6-cyclopropylimidazo[1,2-a]pyridin-2-yl)methyl)amino)pyrimidin-4-yl)carbamoyl)cyclopropyl)phenyl)carbamate], for which the EC50 is over 6000 nM.

For `O=C(Nc1cc(NCc2cn3cc(C4CC4)cc(Cl)c3n2)ncn1)[C@H]1C[C@@H]1c1cccc(Cl)c1` (racemic) [Example 59, rac-(1S*,2S*)-N-(6-(((8-chloro-6-cyclopropylimidazo[1,2-α]pyridin-2-yl)methyl)amino)pyrimidin-4-yl)-2-(3-chlorophenyl)cyclopropane-1-carboxamide], the concentration giving a half-maximal response (EC50) lay in the range of 1 to 10 nM.

For `O=C(Nc1cc(NCc2cn3cc(C4CC4)ccc3n2)ncn1)[C@H]1C[C@@H]1c1cccc(Cl)c1F` (racemic) [Example 43, rac-(1S*,2S*)-2-(3-chloro-2-fluorophenyl)-N-(6-(((6-cyclopropylimidazo[1,2-a]pyridin-2-yl)methyl)amino)pyrimidin-4-yl)cyclopropane-1-carboxamide], the EC50 lay in the range of 10 to 100 nM.

Consider `O=C(Nc1cn(Cc2cn3cc(C4CC4)ccc3n2)nn1)[C@H]1C[C@@H]1c1cccc(Cl)c1` (racemic) [Example 593, rac-(1S*,2S*)-2-(3-chlorophenyl)-N-(1-((6-cyclopropylimidazo[1,2-a]pyridin-2-yl)methyl)-1H-1,2,3-triazol-4-yl)cyclopropane-1-carboxamide], for which the half-maximal effective concentration (EC50) is over 6000 nM.

As to `CCOC(=O)CCOc1ccc(Cl)cc1[C@H]1C[C@@H]1C(=O)Nc1cc(NCc2cn3cc(C4CC4)ccc3n2)ncn1` (racemic) [Example 312, rac-ethyl 3-(4-chloro-2-((1S*,2S*)-2-((6-(((6-cyclopropylimidazo[1,2-a]pyridin-2-yl)methyl)amino)pyrimidin-4-yl)carbamoyl)cyclopropyl)phenoxy)propanoate], the EC50 is 10 to 100 nM.
